Our source for the Ki values is patent publication US20110178062A1, “INDOLE AND BENZOTHIOPHENE COMPOUNDS AS MODULATORS OF THE HISTAMINE H3 RECEPTOR” (priority 2007, published 2011).

The target in one test is T1, cloned human H3 receptors, stably expressed in SK-N-MC cells (Homo sapiens, UniProt Q9Y5N1).
T1 construct: expressed in transfected cells; host or cells: SK-N-MC cells
T1 sequence (Q9Y5N1 whole entry): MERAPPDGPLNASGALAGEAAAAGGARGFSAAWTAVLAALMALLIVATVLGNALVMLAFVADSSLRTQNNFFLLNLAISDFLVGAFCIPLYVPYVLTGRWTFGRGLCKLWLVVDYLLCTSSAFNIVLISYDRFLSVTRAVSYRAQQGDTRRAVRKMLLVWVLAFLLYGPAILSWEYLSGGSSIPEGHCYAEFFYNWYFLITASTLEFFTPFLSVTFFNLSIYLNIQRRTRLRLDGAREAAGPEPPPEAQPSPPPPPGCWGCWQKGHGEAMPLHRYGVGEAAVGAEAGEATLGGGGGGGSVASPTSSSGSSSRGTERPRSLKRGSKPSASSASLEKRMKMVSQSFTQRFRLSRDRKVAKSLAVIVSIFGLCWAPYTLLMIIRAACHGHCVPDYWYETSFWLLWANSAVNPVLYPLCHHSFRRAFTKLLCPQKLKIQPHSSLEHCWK
Description: H3 Receptor Binding (Human). Particulars: average of the results obtained. The protocol:
Binding of compounds to the cloned human H3 receptors, stably expressed in SK-N-MC cells, was performed as described by Barbier, A. J. et al. (Br. J. Pharmacol. 2004, 143(5), 649-661). Data for compounds tested in this assay are presented in Table 1 as an average of the results obtained.
In general, Ki refers to a measure of affinity in units of concentration, obtained from inhibition or displacement. Low values mean higher affinity, high ones lower affinity. For `Cn1cc(CN2CCOCC2)c2ccc(C(=O)N3CCN(C4CC4)CC3)cc21` [Example 2, (4-Cyclopropyl-piperazin-1-yl)-(1-methyl-3-morpholin-4-ylmethyl-1H-indol-6-yl)-methanone], affinity was put at a Ki of 46 nM.

Take `O=C(c1ccc2c(CN3CCOCC3)c[nH]c2c1)N1CCCN(C2CC2)CC1` [Example 8, (4-Cyclopropyl-[1,4]diazepan-1-yl)-(3-morpholin-4-ylmethyl-1H-indol-6-yl)-methanone]: the Ki came to 1 nM.

On to `O=C(c1ccc2c(CN3CCOCC3)c[nH]c2c1)N1CCCN(C2CCC2)CC1` [Example 9, (4-Cyclobutyl-[1,4]diazepan-1-yl)-(3-morpholin-4-ylmethyl-1H-indol-6-yl)-methanone], for which affinity was put at a Ki of 1 nM.

`O=C(NCc1cccnc1)c1ccc2c(CN3CCOCC3)c[nH]c2c1` [Example 10, 3-Morpholin-4-ylmethyl-1H-indole-6-carboxylic acid (pyridin-3-ylmethyl)-amide] had a Ki of 5010 nM.

In turn, `O=C(NCc1ccncc1)c1ccc2c(CN3CCOCC3)c[nH]c2c1` [Example 11, 3-Morpholin-4-ylmethyl-1H-indole-6-carboxylic acid (pyridin-4-ylmethyl)-amide] came in with a Ki of 228 nM.

The molecule `Cc1cccnc1CNC(=O)c1ccc2c(CN3CCOCC3)c[nH]c2c1` [Example 12, 3-Morpholin-4-ylmethyl-1H-indole-6-carboxylic acid (3-methyl-pyridin-2-ylmethyl)-amide] gave a Ki of 2000 nM.

The molecule `O=C(c1ccc2c(CN3CCOCC3)c[nH]c2c1)N1CCc2nc[nH]c2C1` [Example 13, (3-Morpholin-4-ylmethyl-1H-indol-6-yl)-(3,4,6,7-tetrahydro-imidazo[4,5-d]pyridin-5-yl)-methanone] showed a Ki of 2000 nM.

Regarding `O=C(c1ccc2c(CN3CCOCC3)c[nH]c2c1)N1CCC(N2CCCC2=O)CC1` [Example 14, 1-[1-(3-Morpholin-4-ylmethyl-1H-indole-6-carbonyl)-piperidin-4-yl]-pyrrolidin-2-one], the affinity, expressed as Ki, was 609 nM.

In the case of `O=C(NCc1cccnc1)c1ccc2c(CN3CCCCC3)c[nH]c2c1` [Example 15, 3-Piperidin-1-ylmethyl-1H-indole-6-carboxylic acid (pyridin-3-ylmethyl)-amide], the Ki turned out to be 117 nM.

Consider `O=C(NCc1ccncc1)c1ccc2c(CN3CCCCC3)c[nH]c2c1` [Example 16, 3-Piperidin-1-ylmethyl-1H-indole-6-carboxylic acid (pyridin-4-ylmethyl)-amide], for which the Ki was 327 nM.

Take `Cc1cccnc1CNC(=O)c1ccc2c(CN3CCCCC3)c[nH]c2c1` [Example 17, 3-Piperidin-1-ylmethyl-1H-indole-6-carboxylic acid (3-methyl-pyridin-2-ylmethyl)-amide]: affinity was put at a Ki of 114 nM.

As for `O=C(c1ccc2c(CN3CCCCC3)c[nH]c2c1)N1CCc2nc[nH]c2C1` [Example 18, (3-Piperidin-1-ylmethyl-1H-indol-6-yl)-(3,4,6,7-tetrahydro-imidazo[4,5-c]pyridin-5-yl)-methanone], the Ki is 5010 nM.

For the molecule `O=C(c1ccc2c(CN3CCCCC3)c[nH]c2c1)N1CCC(N2CCCC2=O)CC1` [Example 19, 1-[1-(3-Piperidin-1-ylmethyl-1H-indole-6-carbonyl)-piperidin-4-yl]-pyrrolidin-2-one], the affinity corresponds to a Ki of 260 nM.

Molecule `CC(C)N1CCN(C(=O)c2cccc3c(CN4CCCCC4)c[nH]c23)CC1` [Example 22, (4-Isopropyl-piperazin-1-yl)-(3-piperidin-1-ylmethyl-1H-indol-7-yl)-methanone] yielded a Ki of 32 nM.

`CC(C)N1CCN(C(=O)c2ccc3c(CN4CCCCC4)c[nH]c3c2)CC1` [Example 24, (4-Isopropyl-piperazin-1-yl)-(3-piperidin-1-ylmethyl-1H-indol-6-yl)-methanone] yielded a Ki of 2 nM.

The molecule `CC(C)N1CCN(C(=O)c2ccc3c(CN4CCOCC4)cn(S(C)(=O)=O)c3c2)CC1` [Example 26, (4-Isopropyl-piperazin-1-yl)-(1-methanesulfonyl-3-morpholin-4-ylmethyl-1H-indol-6-yl)-methanone] registered a Ki of 18 nM.

As to `CC(C)N1CCN(Cc2c[nH]c3cc(C(=O)N4CCCCC4)ccc23)CC1` [Example 27, [3-(4-Isopropyl-piperazin-1-ylmethyl)-1H-indol-6-yl]-piperidin-1-yl-methanone], the Ki was determined as 28 nM.

As for `O=C(c1ccc2c(CN3CCN(C4CC4)CC3)c[nH]c2c1)N1CCCCC1` [Example 28, [3-(4-Cyclopropyl-piperazin-1-ylmethyl)-1H-indol-6-yl]-piperidin-1-yl-methanone], the affinity corresponds to a Ki of 177 nM.

The molecule `CC(C)N1CCCN(Cc2c[nH]c3cc(C(=O)N4CCCCC4)ccc23)CC1` [Example 30, [3-(4-Isopropyl-[1,4]diazepan-1-ylmethyl)-1H-indol-6-yl]-piperidin-1-yl-methanone] showed a Ki of 26 nM.

Molecule `O=C(c1ccc2c(CN3CCCN(C4CC4)CC3)c[nH]c2c1)N1CCCCC1` [Example 31, [3-(4-Cyclopropyl-[1,4]diazepan-1-ylmethyl)-1H-indol-6-yl]-piperidin-1-yl-methanone] showed a Ki of 214 nM.

The molecule `CC(C)N1CCN(C(=O)c2ccc3[nH]cc(CN4CCCCC4)c3c2)CC1` [Example 32, (4-Isopropyl-piperazin-1-yl)-(3-piperidin-1-ylmethyl-1H-indol-5-yl)-methanone] returned a Ki of 34 nM.

Turning to `O=C(c1ccc2[nH]cc(CN3CCCCC3)c2c1)N1CCN(C2CCC2)CC1` [Example 33, (4-Cyclobutyl-piperazin-1-yl)-(3-piperidin-1-ylmethyl-1H-indol-5-yl)-methanone], the inhibition constant (Ki) was 13 nM.

For the molecule `CC(C)N1CCN(C(=O)c2ccc3[nH]cc(CN4CCOCC4)c3c2)CC1` [Example 35, (4-Isopropyl-piperazin-1-yl)-(3-morpholin-4-ylmethyl-1H-indol-5-yl)-methanone], the affinity, expressed as Ki, was 265 nM.

As for `O=C(c1cccc2c(CN3CCN(C4CCC4)CC3)c[nH]c12)N1CCCCC1` [Example 36, [3-(4-Cyclobutyl-piperazin-1-ylmethyl)-1H-indol-7-yl]-piperidin-1-yl-methanone], the affinity corresponds to a Ki of 81 nM.

`O=C(c1cccc2[nH]cc(CN3CCN(C4CCC4)CC3)c12)N1CCCCC1` [Example 37, [3-(4-Cyclobutyl-piperazin-1-ylmethyl)-1H-indol-4-yl]-piperidin-1-yl-methanone] yielded a Ki of 318 nM.

In turn, `O=C(c1ccc2[nH]cc(CN3CCN(C4CCC4)CC3)c2c1)N1CCCCC1` [Example 38, [3-(4-Cyclobutyl-piperazin-1-ylmethyl)-1H-indol-5-yl]-piperidin-1-yl-methanone] gave a Ki of 427 nM.

In the case of `CC(C)N1CCN(C(=O)c2cccc3[nH]cc(CN4CCOCC4)c23)CC1` [Example 39, (4-Isopropyl-piperazin-1-yl)-(3-morpholin-4-ylmethyl-1H-indol-4-yl)-methanone], the inhibitory constant (Ki) is greater than 10000 nM.

`O=C(c1ccc2[nH]cc(CN3CCOCC3)c2c1)N1CCN(C2CCC2)CC1` [Example 40, (4-Cyclobutyl-piperazin-1-yl)-(3-morpholin-4-ylmethyl-1H-indol-5-yl)-methanone]: the Ki worked out at 33 nM.

The test is the same for the next values; noted with them: stated in text for the intermediate of Example 35, Step A.
Regarding `CC(C)N1CCN(C(=O)c2ccc3[nH]ccc3c2)CC1` [(1H-Indol-5-yl)-(4-isopropyl-piperazin-1-yl)-methanone], the affinity corresponds to a Ki of 97 nM.
